Experiments:
Homo sapiens [1] = species: Homo sapiens; experiment: Inhibition of P-gp in human HeLaS3 cells assessed as potentiation of doxorubicin-induced cytotoxicity at 2.5 uM by SRB assay relative to control; assay type: cell-based
Homo sapiens [2] = species: Homo sapiens; experiment: Inhibition of P-gp in human KBVIN cells assessed as potentiation of doxorubicin-induced cytotoxicity at 2.5 uM by SRB assay relative to control; assay type: cell-based
Homo sapiens [3] = species: Homo sapiens; experiment: Inhibition of P-gp in human KBVIN cells assessed as potentiation of vincristine-induced cytotoxicity at 2.5 uM by SRB assay relative to control; assay type: cell-based
Homo sapiens [4] = species: Homo sapiens; experiment: Inhibition of P-gp in human KBVIN cells assessed as potentiation of paclitaxel-induced cytotoxicity at 2.5 uM by SRB assay relative to control; assay type: cell-based
HEK293 [5] = experiment: Potentiation of doxorubicin-induced cytotoxicity against human Flp-In-293 cells at 2.5 uM by SRB assay relative to control; assay type: functional
HeLa S3 = experiment: Cytotoxicity against human HeLaS3 assessed as reduction in cell viability by SRB assay; assay type: cell-based
HEK293 [6] = experiment: Potentiation of vincristine-induced cytotoxicity against human Flp-In-293 cells at 2.5 uM by SRB assay relative to control; assay type: functional
HEK293 [7] = experiment: Potentiation of paclitaxel-induced cytotoxicity against human Flp-In-293 cells at 2.5 uM by SRB assay relative to control; assay type: functional
Homo sapiens [8] = species: Homo sapiens; experiment: Inhibition of P-gp in human KBVIN cells assessed as potentiation of doxorubicin-induced cytotoxicity at 1 uM by SRB assay relative to control; assay type: cell-based
Homo sapiens [9] = species: Homo sapiens; experiment: Inhibition of P-gp in human HeLaS3 cells assessed as potentiation of vincristine-induced cytotoxicity at 2.5 uM by SRB assay relative to control; assay type: cell-based
Homo sapiens [10] = species: Homo sapiens; experiment: Inhibition of P-gp in human HeLaS3 cells assessed as potentiation of doxorubicin-induced cytotoxicity at 1 uM by SRB assay relative to control; assay type: cell-based
Homo sapiens [11] = species: Homo sapiens; experiment: Inhibition of P-gp in human KBVIN cells assessed as potentiation of paclitaxel-induced cytotoxicity at 1 uM by SRB assay relative to control; assay type: cell-based
Homo sapiens [12] = species: Homo sapiens; experiment: Inhibition of P-gp in human HeLaS3 cells assessed as potentiation of paclitaxel-induced cytotoxicity at 1 uM by SRB assay relative to control; assay type: cell-based
HEK293 [13] = experiment: Potentiation of vincristine-induced cytotoxicity against human Flp-In-293 cells at 1 uM by SRB assay relative to control; assay type: functional
HEK293 [14] = experiment: Potentiation of paclitaxel-induced cytotoxicity against human Flp-In-293 cells at 1 uM by SRB assay relative to control; assay type: functional
Homo sapiens [15] = species: Homo sapiens; experiment: Inhibition of P-gp in human KBVIN cells assessed as potentiation of vincristine-induced cytotoxicity at 1 uM by SRB assay relative to control; assay type: cell-based
Homo sapiens [16] = species: Homo sapiens; experiment: Inhibition of P-gp in human HeLaS3 cells assessed as potentiation of vincristine-induced cytotoxicity at 1 uM by SRB assay relative to control; assay type: cell-based
HEK293 [17] = experiment: Potentiation of doxorubicin-induced cytotoxicity against human Flp-In-293 cells at 1 uM by SRB assay relative to control; assay type: functional
[18] = target: T1, ATP-dependent translocase ABCB1 (Homo sapiens, UniProt P08183); experiment: Inhibition of ABCB1 (unknown origin) expressed in Flp-In-293 cells assessed as increase in calcein-AM uptake at 2.5 uM preincubated for 30 mins followed by calcein-AM addition measured after 30 mins by fluorescence spectrometric method relative to control; assay type: cell-based; conditions: 0.5 h
T1 sequence (P08183 whole entry): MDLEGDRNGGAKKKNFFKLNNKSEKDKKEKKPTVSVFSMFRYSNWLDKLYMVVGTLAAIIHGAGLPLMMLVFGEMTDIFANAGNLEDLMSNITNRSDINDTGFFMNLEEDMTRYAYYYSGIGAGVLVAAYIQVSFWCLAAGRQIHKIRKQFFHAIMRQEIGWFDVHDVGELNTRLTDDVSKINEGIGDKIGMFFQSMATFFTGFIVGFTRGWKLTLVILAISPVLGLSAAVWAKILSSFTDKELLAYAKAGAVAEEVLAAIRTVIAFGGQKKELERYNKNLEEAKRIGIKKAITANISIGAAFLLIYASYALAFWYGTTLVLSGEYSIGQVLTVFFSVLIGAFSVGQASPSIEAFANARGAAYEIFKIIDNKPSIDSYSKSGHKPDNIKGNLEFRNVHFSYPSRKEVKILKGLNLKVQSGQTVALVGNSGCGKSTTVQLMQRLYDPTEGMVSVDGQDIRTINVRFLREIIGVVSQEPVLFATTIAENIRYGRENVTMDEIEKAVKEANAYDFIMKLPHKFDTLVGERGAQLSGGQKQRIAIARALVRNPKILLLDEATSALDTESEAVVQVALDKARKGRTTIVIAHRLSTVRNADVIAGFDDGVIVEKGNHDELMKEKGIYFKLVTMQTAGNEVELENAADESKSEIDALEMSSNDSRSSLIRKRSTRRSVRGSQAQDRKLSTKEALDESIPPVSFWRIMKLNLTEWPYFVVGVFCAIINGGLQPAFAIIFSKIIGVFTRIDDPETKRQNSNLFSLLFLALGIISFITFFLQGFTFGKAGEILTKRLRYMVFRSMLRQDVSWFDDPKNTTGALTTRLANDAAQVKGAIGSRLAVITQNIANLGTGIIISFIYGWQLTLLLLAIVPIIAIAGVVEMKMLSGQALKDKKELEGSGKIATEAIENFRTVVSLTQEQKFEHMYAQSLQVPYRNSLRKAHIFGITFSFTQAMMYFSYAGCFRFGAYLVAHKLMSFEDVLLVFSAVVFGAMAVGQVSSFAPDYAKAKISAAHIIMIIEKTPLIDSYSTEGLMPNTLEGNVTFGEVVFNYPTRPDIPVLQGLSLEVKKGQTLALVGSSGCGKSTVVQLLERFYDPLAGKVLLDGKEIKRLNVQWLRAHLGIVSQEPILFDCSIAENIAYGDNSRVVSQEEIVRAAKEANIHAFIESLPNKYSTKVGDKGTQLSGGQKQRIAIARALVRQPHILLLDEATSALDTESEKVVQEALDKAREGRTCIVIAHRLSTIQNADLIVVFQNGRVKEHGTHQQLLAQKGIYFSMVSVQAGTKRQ

[19] = target: T1, ATP-dependent translocase ABCB1; experiment: Inhibition of ABCB1 (unknown origin) expressed in Flp-In-293 cells assessed as increase in calcein-AM uptake at 5 uM preincubated for 30 mins followed by calcein-AM addition measured after 30 mins by fluorescence spectrometric method relative to control; assay type: cell-based; conditions: 0.5 h
[20] = target: T1, ATP-dependent translocase ABCB1; experiment: Inhibition of ABCB1 (unknown origin) expressed in Flp-In-293 cells assessed as increase in calcein-AM uptake at 10 uM preincubated for 30 mins followed by calcein-AM addition measured after 30 mins by fluorescence spectrometric method relative to control; assay type: cell-based; conditions: 0.5 h

| SMILES | fold change (FC) [18] | fold change (FC) [19] | fold change (FC) [20] | further results |
| --- | --- | --- | --- | --- |
| COc1ccc(CCN(C)CCCC(C#N)(c2ccc(OC)c(OC)c2)C(C)C)cc1OC (configuration not stated) | – | – | – | fold change (FC) (Homo sapiens [1]): 2.82; fold change (FC) (Homo sapiens [2]): 6.69; fold change (FC) (Homo sapiens [3]): 46.1; fold change (FC) (Homo sapiens [4]): 22.9; fold change (FC) (HEK293 [5]): 0.8; IC50 (HeLa S3): > 50 µM; fold change (FC) (HEK293 [6]): 9.54; fold change (FC) (HEK293 [7]): 1.37; fold change (FC) (Homo sapiens [8]): 1.61; fold change (FC) (Homo sapiens [9]): 1.59; fold change (FC) (Homo sapiens [10]): 1.33; fold change (FC) (Homo sapiens [11]): 5.13; fold change (FC) (Homo sapiens [12]): 3.91; fold change (FC) (HEK293 [13]): 1.82; fold change (FC) (HEK293 [14]): 1.49; fold change (FC) (Homo sapiens [15]): 24; fold change (FC) (Homo sapiens [16]): 1.27; fold change (FC) (HEK293 [17]): 1.04 |
| COc1ccc(-c2cc(OC(C)=O)c3c(-c4cccs4)c(N)oc3c2)cc1OC | 3.75 | 4.35 | – | – |
| COc1ccc(-c2cc(OC(C)=O)c3c(-c4ccc5c(c4)OCO5)c(N)oc3c2)cc1 | 1.3 | 1.48 | – | – |
| COc1ccc(-c2cc(OC(C)=O)c3c(-c4c(Cl)cccc4Cl)c(N)oc3c2)cc1 | 1.34 | 1.81 | – | – |
| CC(=O)Oc1cc(-c2ccccc2)cc2oc(N)c(-c3cccs3)c12 | 0.95 | 0.98 | – | – |
| COc1ccc(-c2cc(OC(C)=O)c3c(-c4ccccc4Cl)c(N)oc3c2)cc1 | 1.3 | 1.59 | – | – |
| COc1ccc(-c2cc(OCc3ccncc3)c3c(-c4cccs4)c(N)oc3c2)cc1OC | – | 5.93 | 7.79 | – |
| COc1ccc(-c2cc(OC(C)=O)c3c(-c4ccc(C)cc4)c(N)oc3c2)cc1 | 1.45 | 1.86 | – | – |
| COc1ccc(-c2cc(OCc3cccnc3)c3c(-c4cccs4)c(N)oc3c2)cc1 | – | 3.68 | 4.72 | – |
| COc1ccc(-c2cc(OC(C)=O)c3c(-c4ccc(Cl)c(Cl)c4)c(N)oc3c2)cc1 | 1.82 | 1.83 | – | – |
| COc1ccc(-c2cc(OC(C)=O)c3c(-c4c(F)cccc4Cl)c(N)oc3c2)cc1 | 1.35 | 1.61 | – | – |
| COc1ccc(-c2cc(OCCN3CCOCC3)c3c(-c4cccs4)c(N)oc3c2)cc1 | – | 6.64 | 8.86 | – |
| COc1ccc(-c2cc(OCc3cccc(OC)c3)c3c(-c4cccs4)c(N)oc3c2)cc1 | – | 0.78 | 0.71 | – |
| COc1ccc(-c2cc(OC(C)=O)c3c(-c4ccc(OC)cc4)c(N)oc3c2)cc1 | 1.17 | 1.75 | – | – |
| COc1ccc(-c2cc(OC(C)=O)c3c(-c4ccccc4F)c(N)oc3c2)cc1 | 1.31 | 1.82 | – | – |
| COc1ccc(-c2cc(OCc3ccccc3)c3c(-c4cccs4)c(N)oc3c2)cc1 | – | 0.81 | 0.85 | – |
| COc1ccc(-c2cc(OC(C)=O)c3c(-c4cccnc4)c(N)oc3c2)cc1 | 0.89 | 1.13 | – | – |
| COc1ccc(-c2cc(OCc3ccc([N+](=O)[O-])cc3)c3c(-c4cccs4)c(N)oc3c2)cc1 | – | 0.78 | 0.85 | – |
| COc1ccc(-c2cc(OC(C)=O)c3c(-c4ccc(Cl)cc4)c(N)oc3c2)cc1 | 1.52 | 2.2 | – | – |

| SMILES | fold change (FC) [18] | fold change (FC) [19] | fold change (FC) [20] | further results |
| --- | --- | --- | --- | --- |
| COc1ccc(-c2cc(OC(C)=O)c3c(-c4ccc(F)cc4)c(N)oc3c2)cc1 | 0.94 | 1.26 | – | – |
| COc1ccc(-c2cc(OCc3ncc(C)c(OC)c3C)c3c(-c4cccs4)c(N)oc3c2)cc1 | – | 7.97 | 8.38 | – |
| COc1ccc(-c2cc(OCCN3CCOCC3)c3c(-c4cccs4)c(N)oc3c2)cc1OC | – | 8.42 | 8.85 | – |
| COc1ccc(-c2cc(OCc3cccc(Cl)c3)c3c(-c4cccs4)c(N)oc3c2)cc1 | – | 0.6 | 0.56 | – |
| COc1ccc(-c2cc(OCCN3CCCCC3)c3c(-c4cccs4)c(N)oc3c2)cc1OC | – | 6.06 | – | – |
| COc1ccc(-c2cc(OC(C)=O)c3c(-c4cccc(Cl)c4)c(N)oc3c2)cc1 | 1.85 | 2.45 | – | – |
| COc1ccc(-c2cc(OC(C)=O)c3c(-c4cccs4)c(N)oc3c2)cc1 | 1.9 | 2.2 | – | – |
| COc1ccc(-c2cc(OC(C)=O)c3c(-c4ccccc4)c(N)oc3c2)cc1 | 1.7 | 2.27 | – | – |
| COc1ccc(-c2cc(OCc3ccccn3)c3c(-c4cccs4)c(N)oc3c2)cc1 | – | 3.22 | 4.33 | – |
| COc1ccc(-c2cc(O)c3c(-c4cccs4)c(N)oc3c2)cc1 | 1.46 | 1.62 | – | – |
| COc1ccc(-c2cc(OCc3ccncc3)c3c(-c4cccs4)c(N)oc3c2)cc1 | – | 4.33 | 5.88 | – |
| CC(=O)Oc1cccc2oc(N)c(-c3cccs3)c12 | 1.05 | 1.12 | – | – |
| COc1ccc(-c2cc(O)c3c(-c4cccs4)c(N)oc3c2)cc1OC | – | 1.15 | – | – |
| COc1ccc(-c2cc(OCCN3CCCCC3)c3c(-c4cccs4)c(N)oc3c2)cc1 | – | 7.53 | 5.66 | – |
| CC(=O)Oc1cc(-c2ccc3c(c2)OCO3)cc2oc(N)c(-c3cccs3)c12 | 0.96 | 0.86 | – | – |
| CCN(CC)CCOc1cc(-c2ccc(OC)cc2)cc2oc(N)c(-c3cccs3)c12 | – | 8.85 | 10.14 | – |
| COc1ccc(-c2cc(OC(C)=O)c3c(-c4ccccc4OC)c(N)oc3c2)cc1 | 1.32 | 1.49 | – | – |
| COc1ccc(-c2cc(OCCCN3CCCCC3)c3c(-c4cccs4)c(N)oc3c2)cc1OC | – | 4.55 | – | – |
